Assay [1] deals with human lung cancer cell line SK-MES-1. The experiment in a line: MTT cell proliferation assay, lung cancer cell line SK-MES-1. It is filed as cell-based. From the text: (§1) As human cancer cell lines, human lung cancer cell lines NCL-H226 and SK-MES-1, human esophageal cancer cell lines KYSE-150 and TE-1, human gastric cancer cell line AGS, human colorectal cancer cell lines HT29 and HCT116, human prostate cancer cell line PC-3, human pancreatic cancer cell lines BxPC-3 and PANC-1, human cervical cancer cell lines SiHa and HeLa, human ovarian cancer cell line SK-OV-3, and human endometrial cancer cell lines Ishikawa, HEC-1A, and HEC-1B were obtained from the Shanghai Cell Bank of Chinese Academy of Sciences. […]
(§2) The effects of Example 1 and Comparative Examples 1 to 3 on cell proliferation were assessed using MTT assay. […] All the crystals were completely dissolved by standing at room temperature for 15 minutes, and the absorbance was measured using a micro-plate reader at a wavelength of 570 nm (A570 nm).
(§3) The absorbance value of the control group treated without the sample was calculated as 100, and the absorbance value of the treatment group treated with the sample, compared with that of the control group, was calibrated, and the percentage of inhibition of cell proliferation was calculated according to the following equation. Percentage (%) of inhibition of cell proliferation=((mean absorbance of control group cells−mean absorbance of treatment group cells)/mean absorbance of control group cells)×100
In general terms: Formazan colour is commonly taken as a measure of viable cells.

The subject of assay [2] is human prostate cancer cell line PC-3. The experiment in a line: MTT cell proliferation assay, prostate cancer cell line PC-3. The settings on record: PC-3, treatment for 72 hours, read-out: Cancer cell growth inhibition (IC50). It is filed as cell-based.
Text: as §1, §2, §3

Assay [3] relates to human esophageal cancer cell line KYSE-150. In words: MTT cell proliferation assay, esophageal cancer cell line KYSE-150. It is filed as cell-based.
Text: as §1, §2, §3

In assay [4] the test system is human pancreatic cancer cell line PANC-1. The experiment in a line: MTT cell proliferation assay, pancreatic cancer cell line PANC-1. It is filed as cell-based.
Text: as §1, §2, §3

The subject of assay [5] is human endometrial cancer cell line HEC-1A. The experiment in a line: MTT cell proliferation assay, endometrial cancer cell line HEC-1A. It is filed as cell-based. The settings on record: treatment for 72 hours, read-out: Cancer cell growth inhibition (IC50).
Text: as §1, §2, §3

Assay [6] concerns human esophageal cancer cell line TE-1. In words: MTT cell proliferation assay, esophageal cancer cell line TE-1. It is filed as cell-based.
Text: as §1, §2, §3

The test system of assay [7] is human colorectal cancer cell line HT29. In words: MTT cell proliferation assay, colorectal cancer cell line HT29. It is filed as cell-based.
Text: as §1, §2, §3

Assay [8] concerns human cervical cancer cell line SiHa. The experiment in a line: MTT cell proliferation assay, cervical cancer cell line SiHa. It is filed as cell-based. Conditions: treatment for 72 hours, read-out: Cancer cell growth inhibition (IC50).
Text: as §1, §2, §3

The subject of assay [9] is human colorectal cancer cell line HCT116. In words: MTT cell proliferation assay, colorectal cancer cell line HCT116. It is filed as cell-based.
Text: as §1, §2, §3

Assay [10] deals with human cervical cancer cell line HeLa. The experiment in a line: MTT cell proliferation assay, cervical cancer cell line HeLa. It is filed as cell-based. Conditions: treatment for 72 hours, read-out: Cancer cell growth inhibition (IC50).
Text: as §1, §2, §3

Assay [11] deals with human endometrial cancer cell line HEC-1B. In words: MTT cell proliferation assay, endometrial cancer cell line HEC-1B. Conditions: treatment for 72 hours, read-out: Cancer cell growth inhibition (IC50). It is filed as cell-based.
Text: as §1, §2, §3

The subject of assay [12] is human lung cancer cell line NCL-H226. In words: MTT cell proliferation assay, lung cancer cell line NCL-H226. It is filed as cell-based.
Text: as §1, §2, §3

Assay [13] concerns various cancer cells, such as brain cancer, breast cancer, liver cancer, and skin cancer. In words: Proliferation of other cancer cells (data not shown). It is filed as cell-based.
Assay [14] has as its system human endometrial cancer cell line Ishikawa. The experiment in a line: MTT cell proliferation assay, endometrial cancer cell line Ishikawa. It is filed as cell-based. The settings on record: treatment for 72 hours, read-out: Cancer cell growth inhibition (IC50).
Text: as §1, §2, §3

For assay [15], the system named is human gastric cancer cell line AGS. The experiment in a line: MTT cell proliferation assay, gastric cancer cell line AGS. It is filed as cell-based.
Text: As human cancer cell lines, human lung cancer cell lines NCL-H226 and SK-MES-1, human esophageal cancer cell lines KYSE-150 and TE-1, human gastric cancer cell line AGS, human colorectal cancer cell lines HT29 and HCT116, human prostate cancer cell line PC-3, human pancreatic cancer cell lines BxPC-3 and PANC-1, human cervical cancer cell lines SiHa and HeLa, human ovarian cancer cell line SK-OV-3, and human endometrial cancer cell lines Ishikawa, HEC-1A, and HEC-1B were obtained from the Shanghai Cell Bank of Chinese Academy of Sciences. The cells were incubated in media supplemented with 10% FBS, 50 U/ml penicillin, and 50 μg/ml streptomycin and suitable for incubation of respective cells (RPMI-1640 (NCL-H226, TE-1, BxPC-3, Ishikawa), MEM (SK-MES-1, SiHa, HeLa, HEC-1B), Ham's F-12K (AGS), Ham's F-12 (PC-3), McCOY's 5A (HT29, HCT116, SK-OV-3, HEC-1A), RPMI-1640:Ham's F-12=1:1(v:v) (KYSE-150), and DMEM (PANC-1)) in a humidified incubator with 5% CO2 and 95% air. The media were exchanged every three days.
The effects of Example 1 and Comparative Examples 1 to 3 on cell proliferation were assessed using MTT assay. MTT assay is based on the ability of viable cells against MTT to produce insoluble dark blue formazan products. […] All the crystals were completely dissolved by standing at room temperature for 15 minutes, and the absorbance was measured using a micro-plate reader at a wavelength of 570 nm (A570 nm).
as §3

Assay [16] concerns human pancreatic cancer cell line BxPC-3. The experiment in a line: MTT cell proliferation assay, pancreatic cancer cell line BxPC-3. It is filed as cell-based.
Text: as §1, §2, §3

Assay [17] concerns human ovarian cancer cell line SK-OV-3. The experiment in a line: MTT cell proliferation assay, ovarian cancer cell line SK-OV-3. It is filed as cell-based. Conditions: SK-OV-3, treatment for 72 hours, read-out: Cancer cell growth inhibition (IC50).
Text: as §1, §2, §3

In assay [18] the test system is cancer metastasis. The settings on record: animal experiments; cited from earlier work.
Assay [19] deals with uterine cancer, bladder cancer, lung cancer, maxillary sinus cancer, kidney cancer. The settings on record: end-stage cancer patients; cited from earlier work.

The structures appear in SMILES notation. pIC50: −log10 of the molar value.

As a reminder, the pIC50 is the IC50 on a negative log10 scale, so that one unit is a factor of ten.

In the case of `O1[As]2O[As]3O[As]1O[As](O2)O3` [Example 1, tetraarsenic hexoxide], the negative logarithm of the IC50 (pIC50) in assay [1] (Lung cancer, SK-MES-1, treatment for 72 hours, read-out: Cancer cell growth inhibition (IC50)) was 5.61; in [2] it was 5.30; in assay [3] (Esophageal cancer, KYSE-150, treatment for 72 hours, read-out: Cancer cell growth inhibition (IC50)) it was 5.01; in assay [4] (Pancreatic cancer, PANC-1, treatment for 72 hours, read-out: Cancer cell growth inhibition (IC50)), 5.25; in assay [5] it was 5.61; in assay [6] (Esophageal cancer, TE-1, treatment for 72 hours, read-out: Cancer cell growth inhibition (IC50)) it was 5.63. In addition, the pIC50 is 5.90 in [7] (Colorectal cancer, HT29, treatment for 72 hours, read-out: Cancer cell growth inhibition (IC50)); 5.55 in assay [8]; 5.29 in assay [9] (Colorectal cancer, HCT116, treatment for 72 hours, read-out: Cancer cell growth inhibition (IC50)); 5.79 in [10]; 5.34 in assay [11]; 5.29 in [12] (Lung cancer, NCL-H226, treatment for 72 hours, read-out: Cancer cell growth inhibition (IC50)). In addition, the pIC50 in [14] was 5.56; in [15] (Gastric cancer, treatment for 72 hours, read-out: Cancer cell growth inhibition (IC50)), 6.05; in [16] (Pancreatic cancer, BxPC-3, treatment for 72 hours, read-out: Cancer cell growth inhibition (IC50)), 5.30; in assay [17] it was 5.30. Besides, the “percentage of inhibition of cell proliferation according to treatment time” value is recorded as “increased with the treatment time” in assay [1] (SK-MES-1, 10 μM, 24, 48, 72 hours (FIG. 3)); “significantly increased in the treatment for 72 hours” in assay [3] (KYSE-150, 10 μM, 24, 48, 72 hours (FIG. 4A)); “increased with the treatment time” in assay [6] (TE-1, 10 μM, 24, 48, 72 hours (FIG. 4A)); “increased with the treatment time” in assay [7] (HT29, 10 μM, 24, 48, 72 hours (FIG. 6A)); “increased with the treatment time” in assay [9] (HCT116, 10 μM, 24, 48, 72 hours (FIG. 6A)); “increased with the treatment time” in assay [12] (NCL-H226, 10 μM, 24, 48, 72 hours (FIG. 3)). The “percentage of inhibition of cell proliferation according to concentration” value is recorded as “increased dependent on the concentration of Example 1” in [4] (PANC-1, different concentrations, 72 hours (FIG. 8B)) and “increased dependent on the concentration of Example 1” in [16] (BxPC-3, different concentrations, 72 hours (FIG. 8B)). Also, the “inhibition of proliferation of various cancer cells” value in assay [13] was “confirmed to inhibit the proliferation”. Further, the “inhibition of cell proliferation according to treatment time and concentration” value in [15] (different concentrations, 24, 48, 72 hours (FIG. 5A)) is recorded as “increased with the treatment time at each treatment concentration”. Further, the “percentage of inhibition of gastric cancer cell proliferation at 48 hours” value in assay [15] (treatment for 48 hours (FIG. 5A)) is recorded as “high in spite of the treatment for only 48 hours”.

On to `O1[As]2O[As]3O[As]1O[As](O2)O3` [tetraarsenic hexoxide], for which, in [18], the “cancer metastasis suppressing effects” value is reported as “showed cancer metastasis suppressing effects”. Further, in assay [19], the anticancer treatment effects entry is on record as “had excellent anticancer treatment effects”.

Source of the values: patent US11191779B2, “Pharmaceutical composition for preventing or treating cancer, comprising tetraarsenic hexoxide crystalline polymorph” (CHEMAS CO., LTD., priority 2016, dated 2021).
